Measured values as given in PubChem BioAssay (NCI).
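48-hour exposure; five concentrations; linearly interpolated endpoints. Definition used: TGI = concentration required for complete inhibition of growth.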

What was measured:
Test in all cases: NCI anticancer screen, dose series, 48 h
[1] = tested on: MCF7 breast
[2] = tested on: UACC-62 melanoma
[3] = tested on: OVCAR-3 ovarian
[4] = tested on: RPMI-8226 leukemia
[5] = tested on: MDA-MB-231 breast
[6] = tested on: OVCAR-5 ovarian
[7] = tested on: OVCAR-4 ovarian
[8] = tested on: CAKI-1 renal
[9] = tested on: NCI-H23 lung
[10] = tested on: HCT-15 colon
[11] = tested on: IGROV1 ovarian
[12] = tested on: HS 578T breast
[13] = tested on: MOLT-4 leukemia
[14] = tested on: SK-MEL-28 melanoma
[15] = tested on: SK-MEL-2 melanoma
[16] = tested on: SK-OV-3 ovarian
[17] = tested on: NCI-H460 lung
[18] = tested on: A549 NSCLC
[19] = tested on: T-47D breast
[20] = tested on: BT-549 breast
[21] = tested on: SNB-19 CNS
[22] = tested on: OVCAR-8 ovarian
[23] = tested on: 786-0 renal
[24] = tested on: NCI-H522 lung
[25] = tested on: HCC-2998 colon
[26] = tested on: UACC-257 melanoma
[27] = tested on: SF-295 CNS
[28] = tested on: M14 melanoma
[29] = tested on: SN12C renal
[30] = tested on: HOP-92 NSCLC
[31] = tested on: MALME-3M melanoma
[32] = tested on: RXF 393 renal
[33] = tested on: SNB-75 CNS
[34] = tested on: HT29 colon
[35] = tested on: CCRF-CEM leukemia
[36] = tested on: PC-3 prostate
[37] = tested on: ACHN renal
[38] = tested on: KM12 colon
[39] = tested on: LOX IMVI melanoma
[40] = tested on: SR leukemia
[41] = tested on: NCI-H226 lung
[42] = tested on: K-562 leukemia
[43] = tested on: MDA-MB-435
[44] = tested on: MDA-N
[45] = tested on: NCI/ADR-RES ovarian
[46] = tested on: DU-145 prostate
[47] = tested on: UO-31 renal
[48] = tested on: SF-268 CNS
[49] = tested on: TK-10 renal
[50] = tested on: SF-539 CNS
[51] = tested on: A498 renal
[52] = tested on: SW-620 colon
[53] = tested on: COLO 205 colon
[54] = tested on: HCT-116 colon
[55] = tested on: EKVX NSCLC
[56] = tested on: HL-60(TB) leukemia
[57] = tested on: SK-MEL-5 melanoma
[58] = tested on: U251 CNS
[59] = tested on: HOP-62 NSCLC

Measured: TGI

CC(=O)OC[C@@]1(C)[C@@H]2[C@@H]3[C@@]4(CO[C@]3(C)C(=O)[C@@]3(O)C[C@H](C)[C@H](OC(C)=O)[C@@H]3[C@H]4OC(C)=O)[C@H](OC(=O)c3ccccc3)C[C@@H]21
> 100 µM: all assays above

O=C(O)CP(=O)(O)O
> 100 µM: all assays above

CCC1c2[nH]c3ccccc3c2C[C@H]2C(=O)N3CCC[C@H]3C(=O)N12 (stereo partly specified)
not listed: [17] | [33] | [35] | [50]
> 100 µM: all other assays above

Cc1coc2c1C(=O)C(=O)c1c-2ccc2c1CCCC2(C)C
21.7 µM: [25]
1.19 µM: [57]
5.15 µM: [8]
6.94 µM: [15]
2.88 µM: [43]
8.49 µM: [27]
> 92.3 µM: [38]
7.52 µM: [14]
5.89 µM: [1]
2.37 µM: [26]
> 31.4 µM: [12]
3.98 µM: [24]
7.59 µM: [50]
4.27 µM: [54]
11.9 µM: [18]
> 33.9 µM: [4]
6.4 µM: [10]
9.28 µM: [20]
11.5 µM: [42]
2.8 µM: [9] | [44]
11.2 µM: [41]
29.7 µM: [11]
28.5 µM: [6]
1.47 µM: [3]
10.4 µM: [17]
8.62 µM: [23]
2.46 µM: [28]
> 85.8 µM: [49]
42.4 µM: [34]
9.9 µM: [46]
> 44.7 µM: [36]
14.2 µM: [47]
22.8 µM: [21]
2.3 µM: [31]
16.3 µM: [33]
25.6 µM: [51]
12.5 µM: [52]
3.32 µM: [2]
1.9 µM: [39]
> 30.1 µM: [29]
7.03 µM: [40]
12.1 µM: [59]
22.5 µM: [53]
not listed: [56]
> 100 µM: all other assays above
